Measurements as given in US20240190874A1, “SMALL MOLECULE DEGRADERS OF ANDROGEN RECEPTOR” (THE REGENTS OF THE UNIVERSITY OF MICHIGAN, priority 2021, published 2024).
Like-named read-outs stand apart in the source and are kept apart here.

What was measured:
Format in all cases: cell-based
AR = molecular target: T1, AR (Homo sapiens, UniProt P10275); experiment: Degradation of AR in VCaP cells; conditions: VCaP cells; for Dmax: VCaP
T1 construct: Degradation of AR; Cellular potency; host or cells: VCaP cells
T1 sequence (P10275 1-920): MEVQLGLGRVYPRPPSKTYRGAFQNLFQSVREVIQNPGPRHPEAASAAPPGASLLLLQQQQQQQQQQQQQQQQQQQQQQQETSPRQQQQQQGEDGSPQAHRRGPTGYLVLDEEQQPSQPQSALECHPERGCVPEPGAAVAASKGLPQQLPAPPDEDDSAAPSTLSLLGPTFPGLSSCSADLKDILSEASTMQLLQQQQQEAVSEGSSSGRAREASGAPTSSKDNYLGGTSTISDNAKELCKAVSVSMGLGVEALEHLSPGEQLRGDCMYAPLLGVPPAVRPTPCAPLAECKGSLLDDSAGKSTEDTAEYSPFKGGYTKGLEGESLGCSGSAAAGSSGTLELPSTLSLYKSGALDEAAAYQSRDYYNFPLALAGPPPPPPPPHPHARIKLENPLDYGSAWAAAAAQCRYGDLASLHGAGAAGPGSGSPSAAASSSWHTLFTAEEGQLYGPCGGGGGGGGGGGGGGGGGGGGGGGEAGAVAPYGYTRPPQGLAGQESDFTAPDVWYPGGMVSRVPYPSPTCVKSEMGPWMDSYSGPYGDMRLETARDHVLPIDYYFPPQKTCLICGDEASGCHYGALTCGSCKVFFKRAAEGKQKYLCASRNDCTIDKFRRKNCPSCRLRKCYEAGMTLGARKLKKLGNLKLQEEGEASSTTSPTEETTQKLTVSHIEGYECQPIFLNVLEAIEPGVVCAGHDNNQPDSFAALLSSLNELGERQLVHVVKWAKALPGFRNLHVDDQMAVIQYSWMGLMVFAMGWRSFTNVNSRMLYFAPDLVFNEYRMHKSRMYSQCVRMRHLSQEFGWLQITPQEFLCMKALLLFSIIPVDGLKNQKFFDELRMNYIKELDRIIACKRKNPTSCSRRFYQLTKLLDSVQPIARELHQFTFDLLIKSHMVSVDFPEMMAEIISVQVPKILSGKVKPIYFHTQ
Method: (§1) Biological Assays. LNCaP and VCaP cells used were purchased from American Type Culture Collection (ATCC). LNCaP were grown in RPMI 1640 (Invitrogen) and VCaP cells were grown in DMEM with Glutamax (Invitrogen). All of the cells were supplemented with 10% fetal bovine serum (Invitrogen) at 37° C. in a humidified 5% CO2 incubator.

LNCaP cells = experiment: Cellular potency (IC50) in LNCaP cells
Method: as §1

VCaP cells = experiment: Cellular potency (IC50) in VCaP cells
Method: as §1

## C[C@H]1CC2(CCN(c3ccc(CN4CC(C5CCN(c6ccc7c(c6)C(=O)N(C6CCC(=O)NC6=O)C7=O)CC5)C4)nc3)CC2)CN1c1ccc(C#N)c(Cl)c1 (stereo partly drawn) [compound 179]
AR
  DC50: < 10 nM
LNCaP cells; Homo sapiens, LNCaP
  IC50: < 10 nM
VCaP cells; Homo sapiens, VCaP
  IC50: < 100 nM

## C[C@H]1CC2(CCN(c3ccc(S(=O)(=O)C4CCN(C(=O)CN5Cc6cc7c(cc6C5)C(=O)N(C5CCC(=O)NC5=O)C7=O)CC4)cc3)CC2)CN1c1ccc(C#N)c(Cl)c1 (stereo partly drawn) [compound 152]
AR
  DC50: < 1 nM
LNCaP cells; Homo sapiens, LNCaP
  IC50: < 100 nM
VCaP cells; Homo sapiens, VCaP
  IC50: < 100 nM

## C[C@H]1CC2(CCN(c3ccc(N4CCN(CC5CCN(c6ccc7c(c6)C(=O)N(C6CCC(=O)NC6=O)C7=O)CC5)CC4)cc3)CC2)CN1c1ccc(C#N)c(Cl)c1 (stereo partly drawn) [compound 30]
AR
  DC50: < 1 nM
  Dmax: > 90%
LNCaP cells; Homo sapiens, LNCaP
  IC50: < 10 nM
VCaP cells; Homo sapiens, VCaP
  IC50: < 10 nM

## C[C@H]1CC2(CCN(c3ccc(OC4CCN(C5CN(c6cc7c(cc6F)C(=O)N(C6CCC(=O)NC6=O)C7=O)C5)CC4)cn3)CC2)CN1c1ccc(C#N)c(Cl)c1 (stereo partly drawn) [compound 132]
AR
  DC50: < 1 nM
  Dmax: > 90%
LNCaP cells; Homo sapiens, LNCaP
  IC50: < 10 nM
VCaP cells; Homo sapiens, VCaP
  IC50: < 10 nM

## C[C@H]1CC2(CCN(c3cnc(N4CCN(CC5CN(c6ccc7c(c6)C(=O)N(C6CCC(=O)NC6=O)C7=O)C5)CC4)nc3)CC2)CN1c1ccc(C#N)c(Cl)c1 (stereo partly drawn) [compound 82]
AR
  DC50: < 1 nM
  Dmax: > 90%
LNCaP cells; Homo sapiens, LNCaP
  IC50: < 10 nM
VCaP cells; Homo sapiens, VCaP
  IC50: < 10 nM

## C[C@H]1CC2(CCN(c3ccc(OC4CCN(C5CCN(c6ccc7c(c6)C(=O)N(C6CCC(=O)NC6=O)C7=O)CC5)CC4)cc3)CC2)CN1c1ccc(C#N)c(Cl)c1 (stereo partly drawn) [compound 58]
AR
  DC50: < 10 nM
  Dmax: > 90%
LNCaP cells; Homo sapiens, LNCaP
  IC50: < 100 nM
VCaP cells; Homo sapiens, VCaP
  IC50: < 100 nM

## C[C@H]1CC2(CCN(c3ccc(C4CCN(C5CN(c6ccc7c(c6)C(=O)N(C6CCC(=O)NC6=O)C7=O)C5)CC4)cc3)CC2)CN1c1ccc(C#N)c(Cl)c1 (stereo partly drawn) [compound 22]
AR
  DC50: < 100 nM
  Dmax: 70 to 90%
LNCaP cells; Homo sapiens, LNCaP
  IC50: < 100 nM
VCaP cells; Homo sapiens, VCaP
  IC50: < 100 nM

## C[C@H]1CC2(CCN(c3ccc(N4CCN(C5CN(c6ccc7c(c6)C(=O)N(C6CCC(=O)NC6=O)C7=O)C5)CC4)cn3)CC2)CN1c1ccc(C#N)c(Cl)c1 (stereo partly drawn) [compound 33]
AR
  DC50: < 10 nM
  Dmax: 70 to 90%
LNCaP cells; Homo sapiens, LNCaP
  IC50: < 10 nM
VCaP cells; Homo sapiens, VCaP
  IC50: < 10 nM

## C[C@H]1CC2(CCN(c3ccc(CC4CCN(C5CN(c6ccc7c(c6)C(=O)N(C6CCC(=O)NC6=O)C7=O)C5)CC4)nc3)CC2)CN1c1ccc(C#N)c(Cl)c1 (stereo partly drawn) [compound 197]
AR
  DC50: < 1 nM
LNCaP cells; Homo sapiens, LNCaP
  IC50: < 10 nM
VCaP cells; Homo sapiens, VCaP
  IC50: < 10 nM

## C[C@H]1CC2(CCN(c3ccc(OC4CCN(C5CN(c6cc7c(cc6F)C(=O)N(C6CCC(=O)NC6=O)C7=O)C5)CC4)cc3)CC2)CN1c1ccc(C#N)c(Cl)c1 (stereo partly drawn) [compound 131]
AR
  DC50: < 1 nM
  Dmax: > 90%
LNCaP cells; Homo sapiens, LNCaP
  IC50: < 10 nM
VCaP cells; Homo sapiens, VCaP
  IC50: < 10 nM

## C[C@H]1CC2(CCN(c3ccc(C(=O)N4CCC(N5Cc6cc7c(cc6C5)C(=O)N(C5CCC(=O)NC5=O)C7=O)CC4)s3)CC2)CN1c1ccc(C#N)c(Cl)c1 (stereo partly drawn) [compound 138]
AR
  DC50: < 10 nM
  Dmax: 70 to 90%
LNCaP cells; Homo sapiens, LNCaP
  IC50: < 100 nM
VCaP cells; Homo sapiens, VCaP
  IC50: < 100 nM

## C[C@H]1CC2(CCN(c3ccc(N4CCC(NC5CN(c6ccc7c(c6)C(=O)N(C6CCC(=O)NC6=O)C7=O)C5)CC4)cc3)CC2)CN1c1ccc(C#N)c(Cl)c1 (stereo partly drawn) [compound 120]
AR
  DC50: < 1 nM
  Dmax: > 90%
LNCaP cells; Homo sapiens, LNCaP
  IC50: < 10 nM
VCaP cells; Homo sapiens, VCaP
  IC50: < 10 nM

## C[C@H]1CC2(CCN(c3ccc(CN4CCN(C5CCN(c6ccc7c(c6)C(=O)N(C6CCC(=O)NC6=O)C7=O)CC5)CC4)cn3)CC2)CN1c1ccc(C#N)c(Cl)c1 (stereo partly drawn) [compound 154]
AR
  DC50: < 1 nM
LNCaP cells; Homo sapiens, LNCaP
  IC50: < 10 nM
VCaP cells; Homo sapiens, VCaP
  IC50: < 100 nM

## C[C@H]1CC2(CCN(c3ccc(N4CCN(C5CN(c6ccc7c(c6)C(=O)N(C6CCC(=O)NC6=O)C7=O)C5)CC4)cc3F)CC2)CN1c1ccc(C#N)c(Cl)c1 (stereo partly drawn) [compound 39]
AR
  DC50: < 1 nM
  Dmax: > 90%
LNCaP cells; Homo sapiens, LNCaP
  IC50: < 10 nM
VCaP cells; Homo sapiens, VCaP
  IC50: < 10 nM

## C[C@H]1CC2(CCN(c3cnc(N4CCN(CC5CCN(c6ccc7c(c6)C(=O)N(C6CCC(=O)NC6=O)C7=O)CC5)CC4)cn3)CC2)CN1c1ccc(C#N)c(Cl)c1 (stereo partly drawn) [compound 50]
AR
  DC50: < 10 nM
  Dmax: > 90%
LNCaP cells; Homo sapiens, LNCaP
  IC50: < 100 nM
VCaP cells; Homo sapiens, VCaP
  IC50: < 100 nM

## C[C@H]1CC2(CCN(c3ncc(C(=O)N4CCC(N5Cc6cc7c(cc6C5)C(=O)N(C5CCC(=O)NC5=O)C7=O)CC4)s3)CC2)CN1c1ccc(C#N)c(Cl)c1 (stereo partly drawn) [compound 139]
AR
  DC50: < 10 nM
  Dmax: 70 to 90%
LNCaP cells; Homo sapiens, LNCaP
  IC50: < 100 nM
VCaP cells; Homo sapiens, VCaP
  IC50: < 100 nM

## C[C@H]1CC2(CCN(c3ccc(CN4CCN(C5CN(c6ccc7c(c6)C(=O)N(C6CCC(=O)NC6=O)C7=O)C5)CC4)c(F)c3)CC2)CN1c1ccc(C#N)c(Cl)c1 (stereo partly drawn) [compound 40]
AR
  DC50: < 10 nM
  Degradation of AR in VCaP cells Dmax: A (A = >90%)
LNCaP cells
  IC50: < 100 nM
VCaP cells
  IC50: < 100 nM

## C[C@H]1CC2(CCN(c3ccc(CN4CCC(N5Cc6cc7c(cc6C5)C(=O)N(C5CCC(=O)NC5=O)C7=O)CC4)cc3)CC2)CN1c1ccc(C#N)c(Cl)c1 (stereo partly drawn) [compound 19]
AR
  DC50: < 100 nM
  Dmax: 70 to 90%
LNCaP cells; Homo sapiens, LNCaP
  IC50: < 100 nM
VCaP cells; Homo sapiens, VCaP
  IC50: < 100 nM

## C[C@H]1CC2(CCN(c3ccc(CC4CCN(C5CN(c6ccc7c(c6)C(=O)N(C6CCC(=O)NC6=O)C7=O)C5)CC4)cn3)CC2)CN1c1ccc(C#N)c(Cl)c1 (stereo partly drawn) [compound 196]
AR
  DC50: < 1 nM
LNCaP cells; Homo sapiens, LNCaP
  IC50: < 10 nM
VCaP cells; Homo sapiens, VCaP
  IC50: < 100 nM

## C[C@H]1CC2(CCN(c3ccc(OC4CN(C5CN(c6ccc7c(c6)C(=O)N(C6CCC(=O)NC6=O)C7=O)C5)C4)cn3)CC2)CN1c1ccc(C#N)c(Cl)c1 (stereo partly drawn) [compound 69]
AR
  DC50: < 1 nM
  Dmax: > 90%
LNCaP cells; Homo sapiens, LNCaP
  IC50: < 10 nM
VCaP cells; Homo sapiens, VCaP
  IC50: < 10 nM

## C[C@H]1CC2(CCN(c3ccc(CC4CCN(C5CN(c6ccc7c(c6)C(=O)N(C6CCC(=O)NC6=O)C7=O)C5)CC4)nn3)CC2)CN1c1ccc(C#N)c(Cl)c1 (stereo partly drawn) [compound 198]
AR
  DC50: < 10 nM
LNCaP cells; Homo sapiens, LNCaP
  IC50: < 10 nM
VCaP cells; Homo sapiens, VCaP
  IC50: < 10 nM

## C[C@H]1CC2(CCN(c3ccc(C(=O)C4CCN(C(=O)CN5Cc6cc7c(cc6C5)C(=O)N(C5CCC(=O)NC5=O)C7=O)CC4)cc3)CC2)CN1c1ccc(C#N)c(Cl)c1 (stereo partly drawn) [compound 148, 2-chloro-4-((3S)-8-(4-(1-(2-(6-(2,6-dioxopiperidin-3-yl)-5,7-dioxo-3,5,6,7-tetrahydropyrrolo[3,4-f]isoindol-2(1H)-yl)acetyl)piperidine-4-carbonyl)phenyl)-3-methyl-2,8-diazaspiro[4.5]decan-2-yl)benzonitrile]
LNCaP cells; Homo sapiens, LNCaP
  IC50: < 10 nM
VCaP cells; Homo sapiens, VCaP
  IC50: < 100 nM

## C[C@H]1CC2(CCN(c3cnc(CN4CCN(C5CN(c6ccc7c(c6)C(=O)N(C6CCC(=O)NC6=O)C7=O)C5)CC4)nc3)CC2)CN1c1ccc(C#N)c(Cl)c1 (stereo partly drawn) [compound 170, 2-chloro-4-((3S)-8-(2-((4-(1-(2-(2,6-dioxopiperidin-3-yl)-1,3-dioxoisoindolin-5-yl)azetidin-3-yl)piperazin-1-yl)methyl)pyrimidin-5-yl)-3-methyl-2,8-diazaspiro[4.5]decan-2-yl)benzonitrile]
LNCaP cells; Homo sapiens, LNCaP
  IC50: < 10 nM
VCaP cells; Homo sapiens, VCaP
  IC50: < 100 nM

## C[C@H]1CC2(CCN(c3ccc(CN4CCN(C5CN(c6cc7c(cc6F)C(=O)N(C6CCC(=O)NC6=O)C7=O)C5)CC4)cn3)CC2)CN1c1ccc(C#N)c(Cl)c1 (stereo partly drawn) [compound 153, 2-chloro-4-((3S)-8-(5-((4-(1-(2-(2,6-dioxopiperidin-3-yl)-6-fluoro-1,3-dioxoisoindolin-5-yl)azetidin-3-yl)piperazin-1-yl)methyl)pyridin-2-yl)-3-methyl-2,8-diazaspiro[4.5]decan-2-yl)benzonitrile]
LNCaP cells; Homo sapiens, LNCaP
  IC50: < 10 nM
VCaP cells; Homo sapiens, VCaP
  IC50: < 100 nM
